“And” between values parts separate entries of the source, which are not always exact repeats. Equal entries are not always repeated. Structures can show the parent of a compound that is named as a salt.
Key:
In vivo PK, mouse = conditions: single po dose 50 mg/kg
Text: Female Balb/C or CD1 nude mice (Charles River Laboratories) at 6 weeks of age were used for the mouse PK analyses. […] Three mice were used per time-point per route; average values are reported. They were placed under halothane or isoflurane anesthesia, and blood for plasma preparation was taken by terminal cardiac puncture into heparinized syringes.

[1] = molecular target: hERG human potassium ion channel (Homo sapiens, UniProt Q12809)
Experimental: hERG inhibition was determined using the “hERG human potassium ion channel cell based antagonist Qpatch assay” by Eurofins Ltd. Cell permeability was determined using the “Caco-2 permeability assay” by Cyprotex Ltd.

MAO-B = molecular target: T1, MAO-B (Homo sapiens, UniProt P27338); assay type: biochemical; conditions: Table 7
T1 construct: purchased Sigma
T1 sequence (P27338 1-520): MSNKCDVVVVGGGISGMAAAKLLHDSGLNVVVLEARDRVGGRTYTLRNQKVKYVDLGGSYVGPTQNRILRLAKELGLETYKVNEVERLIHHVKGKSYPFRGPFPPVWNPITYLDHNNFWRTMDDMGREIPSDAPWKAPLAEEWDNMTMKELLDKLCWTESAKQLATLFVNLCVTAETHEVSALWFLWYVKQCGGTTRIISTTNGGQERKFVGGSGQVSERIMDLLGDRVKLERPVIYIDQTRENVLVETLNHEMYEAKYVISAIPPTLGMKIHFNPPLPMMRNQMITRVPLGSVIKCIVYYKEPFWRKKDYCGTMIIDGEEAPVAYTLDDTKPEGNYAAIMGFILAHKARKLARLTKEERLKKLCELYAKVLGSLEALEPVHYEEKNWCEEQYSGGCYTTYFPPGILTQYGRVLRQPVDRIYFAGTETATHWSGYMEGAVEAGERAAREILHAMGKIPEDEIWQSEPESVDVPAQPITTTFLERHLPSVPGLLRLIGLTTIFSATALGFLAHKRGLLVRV
Experimental: (§1) All amine oxidase assays were performed with concentrations as above. MAO-A and MAO-B enzymes were purchased from Sigma. The catalytic activity of MAO-A and MAO-B was determined using the Promega MAO-Glo assay kit (substrate included), with clorgyline and deprenyl as reference inhibitor controls, respectively. DAO was purchased from Sigma, and the catalytic activity was determined using the Promega ROS-Glo assay kit, with aminoguanidine as the reference inhibitor control. SSAO was purchased from Sigma. SSAO catalytic activity was determined using the Promega MAO-Glo assay kit, with mofegiline as the reference inhibitor control.

DAO = molecular target: T2, DAO (Sus scrofa, UniProt Q9TRC7); assay type: biochemical; conditions: Table 7
T2 construct: purchased Sigma
T2 sequence (Q9TRC7 25-755): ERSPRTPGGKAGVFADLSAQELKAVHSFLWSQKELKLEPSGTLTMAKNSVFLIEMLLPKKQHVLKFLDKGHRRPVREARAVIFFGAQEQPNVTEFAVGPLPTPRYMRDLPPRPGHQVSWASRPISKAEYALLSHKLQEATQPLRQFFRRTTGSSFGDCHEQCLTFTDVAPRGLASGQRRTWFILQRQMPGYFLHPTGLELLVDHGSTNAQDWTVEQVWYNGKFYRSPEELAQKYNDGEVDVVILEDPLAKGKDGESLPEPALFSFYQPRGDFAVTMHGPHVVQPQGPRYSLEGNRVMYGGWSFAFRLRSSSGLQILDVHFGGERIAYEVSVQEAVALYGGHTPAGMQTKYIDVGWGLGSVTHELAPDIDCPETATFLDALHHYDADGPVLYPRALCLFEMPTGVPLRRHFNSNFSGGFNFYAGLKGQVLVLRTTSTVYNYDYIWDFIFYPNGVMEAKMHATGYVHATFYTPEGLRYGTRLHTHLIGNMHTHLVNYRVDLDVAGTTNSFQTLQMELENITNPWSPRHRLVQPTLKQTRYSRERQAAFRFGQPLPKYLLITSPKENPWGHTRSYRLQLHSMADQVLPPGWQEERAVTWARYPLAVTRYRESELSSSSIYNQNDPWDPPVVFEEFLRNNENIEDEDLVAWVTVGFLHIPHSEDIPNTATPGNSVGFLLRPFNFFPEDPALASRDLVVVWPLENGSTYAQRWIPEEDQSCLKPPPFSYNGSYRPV
Experimental: as §1

MAO-A = molecular target: T3, MAO-A (Homo sapiens, UniProt P21397); assay type: biochemical; conditions: Table 7
T3 construct: purchased Sigma
T3 sequence (P21397 1-527): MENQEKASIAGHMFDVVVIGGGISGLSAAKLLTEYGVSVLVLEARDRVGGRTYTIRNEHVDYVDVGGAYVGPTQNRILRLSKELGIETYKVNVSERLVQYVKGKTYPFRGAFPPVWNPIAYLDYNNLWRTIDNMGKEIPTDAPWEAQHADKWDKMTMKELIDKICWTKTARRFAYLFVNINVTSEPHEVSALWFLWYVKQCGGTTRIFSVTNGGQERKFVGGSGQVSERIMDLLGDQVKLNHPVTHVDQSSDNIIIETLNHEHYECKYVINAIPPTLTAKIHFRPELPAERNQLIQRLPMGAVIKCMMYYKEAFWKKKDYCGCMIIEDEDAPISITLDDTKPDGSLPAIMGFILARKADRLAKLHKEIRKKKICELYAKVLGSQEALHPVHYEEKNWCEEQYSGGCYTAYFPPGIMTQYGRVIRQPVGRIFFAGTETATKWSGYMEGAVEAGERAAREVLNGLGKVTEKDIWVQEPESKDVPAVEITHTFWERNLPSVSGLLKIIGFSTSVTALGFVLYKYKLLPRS
Experimental: as §1

SSAO = molecular target: T4, SSAO (Homo sapiens, UniProt Q16853); assay type: biochemical; conditions: Table 7
T4 construct: purchased Sigma
T4 sequence (Q16853 1-763): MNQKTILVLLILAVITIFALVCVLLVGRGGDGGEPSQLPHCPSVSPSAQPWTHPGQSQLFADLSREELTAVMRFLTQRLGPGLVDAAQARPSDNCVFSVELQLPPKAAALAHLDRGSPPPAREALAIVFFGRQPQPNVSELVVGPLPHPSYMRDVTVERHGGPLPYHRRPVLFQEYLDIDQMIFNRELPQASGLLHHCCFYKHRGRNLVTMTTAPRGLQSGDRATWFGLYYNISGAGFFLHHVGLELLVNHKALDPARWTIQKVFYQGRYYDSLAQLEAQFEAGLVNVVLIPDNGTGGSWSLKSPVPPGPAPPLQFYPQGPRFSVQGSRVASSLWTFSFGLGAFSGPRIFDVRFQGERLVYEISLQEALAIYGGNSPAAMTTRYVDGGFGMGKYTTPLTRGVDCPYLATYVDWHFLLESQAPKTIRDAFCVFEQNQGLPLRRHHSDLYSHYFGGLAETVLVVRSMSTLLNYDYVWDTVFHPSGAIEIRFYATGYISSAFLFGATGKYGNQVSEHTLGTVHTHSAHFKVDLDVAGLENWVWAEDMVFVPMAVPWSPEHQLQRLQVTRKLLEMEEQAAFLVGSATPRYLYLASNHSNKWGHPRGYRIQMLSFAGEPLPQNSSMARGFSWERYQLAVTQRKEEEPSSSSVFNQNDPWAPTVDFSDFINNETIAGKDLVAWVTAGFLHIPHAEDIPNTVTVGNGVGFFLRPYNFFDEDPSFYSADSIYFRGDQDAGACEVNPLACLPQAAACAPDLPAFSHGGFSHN
Experimental: as §1

MLM stability assay = assay type: in vitro ADME; conditions: mouse liver microsomes; percentage of compound remaining after 30 min; 10 μM
Experimental: Mouse liver microsomes (CD1 female; M1500) and rat liver microsomes (Sprague Dawley female; R1500) were purchased from Tebu-bio, and the assay was performed by methods previously described.[21] Inhibitors at 10 μM concentration incubated with the microsomes were assessed at 0, 15, and 30 min. Control samples containing no microsomes and no cofactors were also assessed at 0 and 30 min. Samples were extracted by protein precipitation, and centrifugation for 20 min in a refrigerated centrifuge (4 °C) at 3700 rpm. The supernatant was analyzed by LC–MS/MS for % metabolized over time.

Chain of hERG human potassium ion channel (Q12809 whole entry): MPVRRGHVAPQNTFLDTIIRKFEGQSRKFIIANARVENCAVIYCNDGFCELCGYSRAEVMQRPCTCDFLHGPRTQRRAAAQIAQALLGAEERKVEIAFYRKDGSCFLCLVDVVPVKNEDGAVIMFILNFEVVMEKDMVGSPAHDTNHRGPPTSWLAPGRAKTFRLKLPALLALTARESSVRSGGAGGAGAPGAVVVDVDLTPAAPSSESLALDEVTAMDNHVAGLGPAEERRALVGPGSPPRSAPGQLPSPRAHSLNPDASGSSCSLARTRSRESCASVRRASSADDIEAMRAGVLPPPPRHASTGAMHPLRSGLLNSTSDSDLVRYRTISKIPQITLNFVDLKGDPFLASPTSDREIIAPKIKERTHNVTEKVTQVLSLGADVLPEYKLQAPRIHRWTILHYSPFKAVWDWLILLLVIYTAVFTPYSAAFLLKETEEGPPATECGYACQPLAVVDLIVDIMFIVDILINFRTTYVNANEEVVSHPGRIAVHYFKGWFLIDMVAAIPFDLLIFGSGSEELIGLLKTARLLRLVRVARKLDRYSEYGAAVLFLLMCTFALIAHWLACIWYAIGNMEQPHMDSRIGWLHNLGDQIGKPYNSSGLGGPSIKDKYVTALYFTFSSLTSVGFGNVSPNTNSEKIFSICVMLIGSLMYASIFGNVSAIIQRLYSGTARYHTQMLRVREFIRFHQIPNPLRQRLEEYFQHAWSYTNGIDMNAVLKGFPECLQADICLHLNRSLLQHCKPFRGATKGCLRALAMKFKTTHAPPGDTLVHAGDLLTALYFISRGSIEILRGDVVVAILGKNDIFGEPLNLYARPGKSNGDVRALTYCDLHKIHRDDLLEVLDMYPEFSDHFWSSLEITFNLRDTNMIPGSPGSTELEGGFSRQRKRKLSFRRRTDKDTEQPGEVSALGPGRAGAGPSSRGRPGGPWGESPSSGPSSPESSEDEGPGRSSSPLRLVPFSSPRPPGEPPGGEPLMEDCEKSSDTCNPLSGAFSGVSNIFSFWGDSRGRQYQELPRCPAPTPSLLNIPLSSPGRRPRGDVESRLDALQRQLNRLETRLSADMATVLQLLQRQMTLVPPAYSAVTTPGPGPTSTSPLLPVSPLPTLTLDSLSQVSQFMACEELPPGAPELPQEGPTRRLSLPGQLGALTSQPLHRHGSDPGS

Cn1cc(-c2cc(F)cc(S(=O)(=O)c3cnc(CN)s3)c2)cn1 [Compound 21e, (5-((3-Fluoro-5-(1-methyl-1H-pyrazol-4-yl)phenyl)sulfonyl)thiazol-2-yl)methanamine Hydrochloride]
AUC(PO) (In vivo PK, mouse; mouse plasma): 4.48 µM·h | Cmax (In vivo PK, mouse; mouse plasma): 9.75 µM | t1/2(PO) (In vivo PK, mouse; mouse): 2.0 h | IC50 [1]: 66 µM | IC50 (MAO-B): > 100 µM | IC50 (DAO): 21.3 µM and 22.5 µM | IC50 (MAO-A): 61.7 µM and 66.8 µM | IC50 (SSAO): 36.3 µM and 40.3 µM | MLM stability (%) (MLM stability assay): 90%

Reference: PMC7073924, “2-Aminomethylene-5-sulfonylthiazole Inhibitors of Lysyl Oxidase (LOX) and LOXL2 Show Significant Efficacy in Delaying Tumor Growth” (Journal of Medicinal Chemistry, 2019)
